Patent publication US20070128657A1, “Molecular libraries” (priority 2002, published 2007)

Columns and labels:
Format in all cases: cell-based, Homo sapiens (human)
SW480.7 cells = test: Cell proliferation status / death after ligand transfection, SW480.7; settings: SW480.7, 15 days, without puromycin selection
Method: (§1) The purpose of this experiment is to confirm that the selected peptide ligand indeed restores the mutated p53 protein to the wild-type p53 function in SW480.7 cells. […] There might be a chance that the cells got the resistance with, or even without the help of the selected ligand via mechanisms other than p53-transactivated p21 promoter. Thus we should make sure that the mutant p53 in SW480.7 cells functions as wild-type p53 only if the selected ligand is added. […] The selected peptide ligand can be further verified only if it can induce cell cycle arrest or apoptosis in SW480.7 cells but neither in U-2 OS nor in Saos2 cells, which means the specificity of the selected ligand to p53 mutation in SW480.7. • 2—We also tested the transcription levels of genes that are only transactivated by wild-type p53.
(§2) Cells SW480.7, U-2OS, and Sa-os2 were transfected with peptide ligand and pCEP4 parallelly using the calcium phosphate method.
(§3) After transfection, cells were cultured without drug selection and diluted at the ratio of 1:100 every five days. Cell proliferation status was closely observed until ligand transfected SW480.7 cells died out. Life staining with 0.4% trypan blue was applied to determine the death of the cells. Dead cells can not exclude the dye thus were stained blue. Living cells can pump the dye outside thus were not stained. […]

U-2 OS (WTp53) = test: Cell proliferation status after ligand transfection, U-2 OS; settings: U2-OS, without puromycin selection
Method: as §1, §2, §3

[1] = tested on: Saos2 cells (no p53 copy); test: Cell proliferation status after ligand transfection, Saos-2; settings: Saos-2, without puromycin selection
Method: as §1, §2, §3

R273H/P309S p53 mutant = test: RT-PCR of genes transactivated by wild-type p53 in ligand transfected SW480.7 cells
Method: as §1
P53 (wild-type) regulates different cell responses via transactivating different downstream genes. For example p53 causes cell cycle arrest at G1 phase by transactivation of p21 gene. While p53 causes cell arrest at G2 phase by transactivation of […]. Apoptosis is due to p53 transactivation of […] and/or Bax gene. Thus we measured p21, CD95, and 14-3-3σ gene transcription levels by RT PCR, to reveal the capability of the selected peptide ligand in restoring the wild-type p53 transactivation of the downstream genes. The expression level of β-actin was measured as a control. β-Actin transcription level was used to normalize total mRNA amount between samples for comparison owing to its constitutive expression in all cells.
After transfection, cells were cultured without drug selection and diluted at the ratio of 1:100 every five days. Cell proliferation status was closely observed until ligand transfected SW480.7 cells died out. Life staining with 0.4% trypan blue was applied to determine the death of the cells. Dead cells can not exclude the dye thus were stained blue. Living cells can pump the dye outside thus were not stained. Total RNA was collected from two wells of one ligand transfected SW480.7 plate and one pCEP4 transfected SW480.7 plate each day on day 0, day 1, and day 2 after transfection. Thus RNA samples were harvested as SW480.7/Ligand-0 day, SW480.7/Ligand-1 day, SW480.7/Ligand-2 day, SW480.7/pCEP4-0 day, SW480.7/pCEP4-1 day, SW480.7/pCEP4-2 day. Protocol for total RNA extraction by TRIZOL® Reagent was according to that given by Life Technology:
cDNA Amplification by PCR
8. Electrophoreses 5 μl of each PCR reaction alongside 0.1 μg of 1-kb DNA ladder on a 1.2% agarose/EtBr gel in 1×TBE buffer.

[2] = ligand transfected SW480.7 compared with empty pCEP4 transfected SW480.7 cells

M G W C T (MGWCT; Peptide sequence translated from DNA extracted from library-transfected cells.) [ligand]
Cell growth status after transfection of the ligand (SW480.7 cells): could no longer attach to the wall and died
Cell growth status after transfection of the ligand (U-2 OS (WTp53)): growing well
Cell growth status after transfection of the ligand [1]: growing well
Restoration of wild type p53 function (RT-PCR analysis of mRNA) (R273H/P309S p53 mutant; ligand transfected SW480.7 cells): can reestablish wild type p53 function
mRNA level of 14-3-3 gene (R273H/P309S p53 mutant; [2]): Higher
mRNA level of CD95 gene (R273H/P309S p53 mutant; [2]): Higher
mRNA level of p21 (WAF1/Cip1) gene (R273H/P309S p53 mutant; [2]): Higher
